Test results reported in patent publication USRE43327E1, “Hydrophobic polyamine analogs and methods for their use” (Aminex Therapeutics, Inc., priority 2001, dated 2012).
Values joined by “and” are separate entries in the source; they are usually repeats but may differ in a detail not shown here. Identical values can stand only once.

Key:
Format in all cases: cell-based
[1] = tested on: SK-OV-3; assay: Growth inhibition assay (MTS/PMS) with DFMO, SK-OV-3; conditions: in the presence of DFMO (1-5 mM), 1 mM AG, 0.5 μM SPD, six days; repeat determinations; read-out: Cell Line EC50 SK-OV-3
Protocol: (§1) Medias were obtained from Mediatech, Inc. (Herdon, Va.) and serums from Gibco BRL (Gaithersburg, Md.). 50 U/ml penicillin, 50 μg/ml streptomycin and 2 mM L-glutamine (all from Bio Whittaker, Walkersville, Md.) were included in all cultures. […] When cells were cultured with polyamines or ORI compounds, 1 mM aminoguanidine (AG; Sigma) was included to inhibit serum amine oxidase activity.

[2] = tested on: MDA-MB-231; assay: Growth inhibition assay, PA alone, MDA-MB-231; conditions: PA alone (no DFMO), six days; repeat determinations; read-out: Cell Line IC50 MDA-MB-231
Protocol: as §1

[3] = tested on: PC-3; assay: Growth inhibition assay, PA alone, PC-3; conditions: PA alone (no DFMO), six days; repeat determinations; read-out: Cell Line IC50 PC-3
Protocol: as §1

[4] = tested on: A375; assay: Growth inhibition assay, PA alone, A375; conditions: PA alone (no DFMO), six days; repeat determinations; read-out: Cell Line IC50 A375
Protocol: as §1

[5] = tested on: PC-3; assay: Growth inhibition assay (MTS/PMS) with DFMO, PC-3; conditions: in the presence of DFMO (1-5 mM), 1 mM AG, 0.5 μM SPD, six days; repeat determinations; read-out: Cell Line EC50 PC-3
Protocol: as §1

[6] = tested on: A375; assay: Growth inhibition assay (MTS/PMS) with DFMO, A375; conditions: in the presence of DFMO (1-5 mM), 1 mM AG, 0.5 μM SPD, six days; repeat determinations; read-out: Cell Line EC50 A375
Protocol: as §1

[7] = tested on: SK-OV-3; assay: Growth inhibition assay, PA alone, SK-OV-3; conditions: PA alone (no DFMO), six days; repeat determinations; read-out: Cell Line IC50 SK-OV-3
Protocol: as §1

[8] = tested on: MDA-MB-231; assay: Growth inhibition assay (MTS/PMS) with DFMO, MDA-MB-231; conditions: in the presence of DFMO (1-5 mM), 1 mM AG, 0.5 μM SPD, six days; repeat determinations; read-out: Cell Line EC50 MDA-MB-231
Protocol: as §1

[9] = tested on: 4 cell lines (A375, MDA-MB-231, PC-3, SK-OV-3); assay: Growth inhibition with DFMO, average over 4 cell lines; conditions: Table 3; average over cell lines, with DFMO; read-out: AVG. EC50
Protocol: Cells were plated in 96-well plates such that they would be in log growth for the duration of the assay. The day after plating, PAs were added to the cells, and growth, if any, permitted to continue for six days in the presence of 1 mM AG and 0.5 μM SPD to insure that any growth inhibition was not the result of depletion of external polyamines in the media. At the end of the six days, cell growth was measured by MTS/PMS dye assay (Cell Titer 96 Aqueous Non-Radioactive Cell Proliferation Assay; Promega, Madison, Wis.).

SMILES | EC50 [1] [nM] | IC50 [2] [µM] | IC50 [3] [µM] | IC50 [4] [µM] | EC50 [5] [nM] | EC50 [6] | IC50 [7] [µM] | EC50 [8] [nM] | EC50 [9] [nM]
NCCCNCCCCNCCCNC(=O)[C@@H](N)CCCCNS(=O)(=O)c1ccccc1 [IIA16] | > 30000 | > 30 | > 30 | > 30 | 720 | 1210 nM | > 30 | 2570 | 
Cc1cc(C)c(S(=O)(=O)NCCCC[C@H](N)C(=O)NCCCNCCCCNCCCN)c(C)c1 [IIA17] | 2590 | 605 | > 30 | > 30 | 180 | 629 nM | > 30 | < 1000 | 
CN(C)c1cccc2c(S(=O)(=O)NCCCC[C@H](N)C(=O)NCCCNCCCCNCCCN)cccc12 [IIA20] | 2650 | > 30 | > 30 | > 30 | 463 | 405 nM | > 30 | 1610 | 1280
CCS(=O)(=O)NCCCC[C@@H](N)C(=O)NCCCNCCCCNCCCN [IIB2] | > 30000 |  | > 30 | > 30 | 3640 | 7250 nM | > 30 |  | 
Cc1cc(C)c(S(=O)(=O)NCCCC[C@@H](N)C(=O)NCCCNCCCCNCCCN)c(C)c1 [IIB17] | 26200 |  | > 30 | > 30 | 919 | 1520 nM | > 30 |  | 
CCS(=O)(=O)N[C@@H](CCCCN)C(=O)NCCCNCCCCNCCCN [IID2] | > 30000 | > 30 | > 30 | > 30 | > 30000 | > 30000 nM | > 30 | > 30000 | > 30000
Cc1cc(C)c(S(=O)(=O)NC(CCCCN)C(=O)NCCCNCCCCNCCCN)c(C)c1 (centres unmarked) [IID17] | 23900 | > 30 | > 30 | > 30 | 4090 | 5870 nM | > 30 | 5100 | 9740
CCCCCCCC/C=C\CCCCCCCC(=O)NCCCC[C@H](N)C(=O)NCCCNCCCCNCCCN [IIIA1] | 398 | > 30 | > 30 | > 30 | 386 | 76 nM | > 30 | 197 | 264
CCCCCCCC/C=C/CCCCCCCC(=O)NCCCC[C@H](N)C(=O)NCCCNCCCCNCCCN [IIIA2] | 76 | > 30 | > 30 | > 30 | 22 | 10 nM | > 30 | 29 | 34
CCCCC/C=C\C/C=C\CCCCCCCC(=O)NCCCC[C@H](N)C(=O)NCCCNCCCCNCCCN [IIIA5] |  | > 30 |  | > 30 |  | 84 nM |  | 207 | 
CCCCC/C=C/C/C=C/CCCCCCCC(=O)NCCCC[C@H](N)C(=O)NCCCNCCCCNCCCN [IIIA6] | 95 | > 30 | 25.8 | 22.3 | 60 | 18 nM | > 30 | 47 | 55
C[C@H](CCC(=O)NCCCC[C@H](N)C(=O)NCCCNCCCCNCCCN)[C@H]1CC[C@H]2[C@@H]3[C@H](O)C[C@@H]4C[C@H](O)CC[C@]4(C)[C@H]3C[C@H](O)[C@]12C [IIIA7] | 2940 | > 3 | > 3 | > 3 | 255 | 87 nM | > 3 | 215 | 874
CCCC/C=C\CCCCCCCCCCNCCCC[C@H](N)C(=O)NCCCNCCCCNCCCN [IVA18] | 140 |  | > 3 |  | 75 | 50 nM and 61 nM | > 3 |  | 79
